Measurements reported in patent publication US8609681B2, “Spirocyclic nitriles as protease inhibitors” (Sanofi, priority 2006, dated 2013).

What was measured:
Type in all cases: biochemical
Details in all cases: Ki from IC50 by Cheng-Prusoff equation
[1] = target: catalytic domain of human Cathepsin K (Homo sapiens (Human), UniProt P43235); test: Enzymatic activity of the catalytic domain of human Cathepsin K (fluorogenic substrate Boc-Ala-Gly-Pro-Arg-AMC)
Protocol: (§1) The enzyme is activated as follows:
1 part by volume of enzyme is admixed with 4 parts by volume of cysteine solution and diluted with the acetate/Hepes buffer to a concentration of 0.22 μg/ml.
(§2) To measure the enzyme activity, 10 μl of enzyme solution are incubated with 10 μl of a 3% (v/v) aqueous dimethyl sulfoxide solution (reaction 1) for 10 minutes. To measure the enzyme inhibitor activity, 10 μl of enzyme solution are incubated with 10 μl of a 3% (v/v) aqueous dimethyl sulfoxide solution which contains the enzyme inhibitor (reaction 2).
(§3) Both in reaction 1 and in reaction 2, after addition of 10 μl of a 3% (v/v) aqueous dimethyl sulfoxide solution which contains 0.3 mmol/l of the substrate, the enzyme reaction is monitored by fluorescence spectroscopy (360 nm (excitation)/465 nm (emission)).
(§4) The enzyme activity is shown as fluorescence increase/minute.
(§5) The inhibitor action is calculated as the percentage inhibition by the following formula: % inhibition=100−[(fluorescence increase/minute in reaction 2)/(fluorescence increase/minute in reaction 1)×100].
(§6) The IC50, which is the inhibitor concentration required for a 50% inhibition in the enzyme activity, is determined graphically by plotting the percentage inhibitions at different inhibitor concentrations.
(§7) The cysteine solution contains 0.3 mol/l of cysteine in water. The acetate/Hepes buffer contains 0.15 mol/l of sodium acetate, 0.15 mol/l of Hepes, 0.3 mol/l of sodium chloride and 0.001% Pluronic (Sigma, Deisenhofen, Germany) pH 6.5.
The enzyme solution contains 0.22 μg/ml of the enzyme domain.
The substrate solution contains 0.3 mmol/l of the fluorogenic substrate Boc-Ala-Gly-Pro-Arg-AMC (Bachem, Heidelberg, Germany).
(§8) Corresponding Ki values are obtained by applying the Cheng-Prusoff equation: Ki=Ki,app/(1+[S]/KM); where Ki,app=IC50
(§9) (Ki,app is the concentration of the competing substance which leads to 50% inhibition of the enzymatic activity at a substrate concentration [S])

[2] = target: catalytic domain of human Cathepsin B (Homo sapiens (Human), UniProt P07858); test: Enzymatic activity of the catalytic domain of human Cathepsin B (fluorogenic substrate Z-Arg-Arg-AMC)
Protocol: as §1
25 μg of enzyme are diluted with acetate buffer to a concentration of 12.5 μg/ml. 1 part by volume of enzyme is admixed with 20 parts by volume of cysteine solution and diluted with the acetate/Hepes buffer to a concentration of 0.11 μg/ml and incubated at 37° C. for 5 minutes.
as §2, §3, §4
The inhibitor action is calculated as the percentage inhibition by the following formula: inhibition=100−[(fluorescence increase/minute in reaction 2)/(fluorescence increase/minute in reaction 1)×100].
as §6
The acetate buffer contains 0.1 mol/l of sodium acetate, 0.1 mol/l of sodium chloride and 0.001% Pluronic (Sigma, Deisenhofen, Germany) pH 4.5.
as §7
The enzyme solution contains 0.11 μg/ml of the enzyme domain.
The substrate solution contains 0.3 mmol/l of the fluorogenic substrate […] (Bachem, Heidelberg, Germany).
as §8, §9

[3] = target: catalytic domain of human Cathepsin S (Homo sapiens (Human), UniProt P25774); test: Enzymatic activity of the catalytic domain of human Cathepsin S (fluorogenic substrate Z-Val-Val-Arg-AMC)
Chain of catalytic domain of human Cathepsin S (P25774 115-331): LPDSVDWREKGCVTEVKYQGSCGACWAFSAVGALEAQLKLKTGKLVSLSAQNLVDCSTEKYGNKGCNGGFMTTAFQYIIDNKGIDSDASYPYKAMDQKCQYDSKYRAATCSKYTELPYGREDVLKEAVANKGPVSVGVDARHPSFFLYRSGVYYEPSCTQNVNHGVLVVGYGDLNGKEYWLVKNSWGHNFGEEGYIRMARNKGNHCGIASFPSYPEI
Protocol: as §1
5 parts by volume of enzyme are incubated with 20 parts by volume of acetate buffer and 50 parts by volume of cysteine solution at 37° C. for 5 minutes. After the activation of the enzyme, it is diluted with the Tris/HCl buffer to a concentration of 0.65 μg/ml. To measure the enzyme activity, 10 μl of enzyme solution are incubated with 10 μl of a 3% (v/v) aqueous dimethyl sulfoxide solution (reaction 1) for 10 minutes. To measure the enzyme inhibitor activity, 10 μl of enzyme solution are incubated with 10 μl of a 3% (v/v) aqueous dimethyl sulfoxide solution which contains the enzyme inhibitor (reaction 2). Both in reaction 1 and in reaction 2, after addition of 10 μl of a 1.5% (v/v) aqueous dimethyl sulfoxide solution which contains 0.15 mmol/l of the substrate, the enzyme reaction is monitored by fluorescence spectroscopy (360 nm (excitation)/465 nm (emission)).
as §4, §5, §6
The acetate buffer contains 0.05 mol/l of sodium acetate, 0.1 mol/l of sodium chloride and 0.001% Pluronic (Sigma, Deisenhofen, Germany) pH 5.5.
The cysteine solution contains 0.3 mol/l of cysteine in water. The Tris/HCl buffer contains 0.1 mol/l of Tris/HCl, 0.04 mol/l of EDTA and 0.001% Pluronic pH=7.5. The enzyme solution contains 0.65 μg/ml of the enzyme domain.
The substrate solution contains 0.15 mmol/l of the fluorogenic substrate Z-Val-Val-Arg-AMC (Bachem, Heidelberg, Germany).
as §8, §9

Chain of catalytic domain of human Cathepsin K (P43235 115-329): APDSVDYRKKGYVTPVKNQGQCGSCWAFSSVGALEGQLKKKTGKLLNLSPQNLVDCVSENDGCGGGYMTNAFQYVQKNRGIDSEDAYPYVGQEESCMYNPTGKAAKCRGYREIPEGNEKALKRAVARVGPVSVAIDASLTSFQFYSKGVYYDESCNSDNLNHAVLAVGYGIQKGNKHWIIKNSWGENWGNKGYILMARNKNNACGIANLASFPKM

Compound | Ki [1] [nM] | Ki [2] [nM] | Ki [3] [nM]
CC(F)(F)C[C@H](NC(=O)N1CCC2(CCCCC2)CC1)C(=O)NC1(C#N)CC1 [Example 9, N—[(S)-1-(1-cyanocyclopropylcarbamoyl)-3,3-difluorobutyl]-3-azaspiro[5.5]undecane-3-carboxamide] | 1.8 | 46 | 3.2
CC(C)C[C@H](NC(=O)C1CCC2(CC1)OCCO2)C(=O)NC1(C#N)CC1 [Example 35, N—[(S)-1-(1-cyanocyclopropylcarbamoyl)-3-methylbutyl]-1,4-dioxaspiro[4.5]decane-8-carboxamide] | 31 | > 7100 | 150
CC(F)(F)C[C@H](NC(=O)N1CCC2(CCCC2)CC1)C(=O)NC1(C#N)CC1 [Example 36] | 3 | 44 | 2
CC(F)(F)C[C@H](NC(=O)N1CCC2(CC1)OCCO2)C(=O)NC1(C#N)CC1 [Example 37] | 21 | 560 | 13
CC(F)(F)C[C@H](NC(=O)N1CCC2(CC1)C(=O)NCN2c1ccccc1)C(=O)NC1(C#N)CC1 [Example 42] | 32 | 4500 | 11
CC(F)(F)C[C@H](NC(=O)N1CCC2(CC1)NCC(C)(C)CO2)C(=O)NC1(C#N)CC1 [Example 45] | 21 | 1200 | 24
CC(F)(F)C[C@H](NC(=O)N1CCC2(CC1)CCN(Cc1ccccc1)C2=O)C(=O)NC1(C#N)CC1 [Example 49] | 52 | 2200 | 16
N#CC1(NC(=O)C2(NC(=O)N3CCC4(CCCC4)CC3)CCCCC2)CC1 [Example 53] | 4.5 | 1500 | 53
CC(F)(F)C[C@H](NC(=O)N1CCC2(CC1)CCN(C1CC1)CC2)C(=O)NC1(C#N)CC1 [Example 56] | 7.5 | 210 | 7.2
CC(F)(F)C[C@H](NC(=O)N1CCC2(CC1)CC2)C(=O)NC1(C#N)CC1 [Example 63, N—[(S)-1-(1-cyanocyclopropylcarbamoyl)-3,3-difluorobutyl]-6-azaspiro[2.5]octane-6-carboxamide] | 22 | 260 | 5
N#CC1(NC(=O)[C@H](CC(F)(F)Cc2ccccc2)NC(=O)N2CCC3(CC2)CC3)CC1 [Example 70, N—[(S)-1-(1-cyanocyclopropylcarbamoyl)-3,3-difluoro-4-phenylbutyl]-6-azaspiro[2.5]octane-6-carboxamide] | 910 | 110 | 0.3
CC(F)(F)C[C@H](NS(=O)(=O)N1CCC2(CCCC2)CC1)C(=O)NC1(C#N)CC1 [Example 74, N-(1-Cyanocyclopropyl)-(S)-2-(8-azaspiro[4.5]decane-8-sulfonylamino)-4,4-difluoropentamide] | 150 | > 7100 | 16
CC(F)(F)C[C@H](NC(=O)N1CCC2(CC1)CCC(C)(C)O2)C(=O)NC1(C#N)CC1 [Example 76] | 47 | 930 | 22
CC(F)(F)C[C@H](NC(=O)N1CCC2(CCCCC2)C1)C(=O)NC1(C#N)CC1 [Example 77] | 20 | 220 | 7
CC(F)(F)C[C@H](NC(=O)N1CCC2(CC1)OCc1ccccc12)C(=O)NC1(C#N)CC1 [Example 78] | 38 | 530 | 19
CC(F)(F)C[C@H](NC(=O)N1CCC2(CCCc3ccccc32)C1)C(=O)NC1(C#N)CC1 (stereo partly drawn) [Example 79] | 16 | 620 | 9
CC(F)(F)C[C@H](NC(=O)N1CCOC12CCCCC2)C(=O)NC1(C#N)CC1 [Example 80] | 36 | 3900 | 9
CC(F)(F)C[C@H](NC(=O)N1CC2(CCN(C3CC3)CC2)C1)C(=O)NC1(C#N)CC1 [Example 83] | 28 | 2300 | 8
CC(F)(F)C[C@H](NC(=O)N1CCC2(CC1)CC(=O)N(CC1CC1)C2)C(=O)NC1(C#N)CC1 [Example 88] | 15 | 310 | 9
CCCC(F)(F)C[C@H](NC(=O)N1CCC2(CC1)CCN(c1ccc(OC)cc1)C2)C(=O)NC1(C#N)CC1 [Example 91] | 43 | 140 | 2
CCCC(F)(F)C[C@H](NC(=O)N1CCC2(CC1)CCN(C1CC1)CC2)C(=O)NC1(C#N)CC1 [Example 94] | 24 | 84 | 2
N#CC1(NC(=O)[C@H](CC(F)(F)Cc2ccccc2)NC(=O)N2CCC3(CC2)CCN(C2CC2)CC3)CC1 [Example 97] | 400 | 100 | 1
CCCC(F)(F)C[C@H](NC(=O)N1CCC2(CC1)CC2)C(=O)NC1(C#N)CC1 [Example 102] | 33 | 62 | 0.5
CN1CCC(C#N)(NC(=O)[C@H](CC(C)(F)F)NC(=O)N2CCC3(CC2)CC3)CC1 [Example 103] | 84 | 99 | 27
